Among the data in patent US11332459B2 (TEIJIN PHARMA LIMITED, priority 2017, dated 2022) are IC50 values, retold here.

This test concerns the target T1, human TRPC6 (Homo sapiens, UniProt Q9Y210).
T1 construct: expressed in transfected cells
T1 sequence (Q9Y210 1-931): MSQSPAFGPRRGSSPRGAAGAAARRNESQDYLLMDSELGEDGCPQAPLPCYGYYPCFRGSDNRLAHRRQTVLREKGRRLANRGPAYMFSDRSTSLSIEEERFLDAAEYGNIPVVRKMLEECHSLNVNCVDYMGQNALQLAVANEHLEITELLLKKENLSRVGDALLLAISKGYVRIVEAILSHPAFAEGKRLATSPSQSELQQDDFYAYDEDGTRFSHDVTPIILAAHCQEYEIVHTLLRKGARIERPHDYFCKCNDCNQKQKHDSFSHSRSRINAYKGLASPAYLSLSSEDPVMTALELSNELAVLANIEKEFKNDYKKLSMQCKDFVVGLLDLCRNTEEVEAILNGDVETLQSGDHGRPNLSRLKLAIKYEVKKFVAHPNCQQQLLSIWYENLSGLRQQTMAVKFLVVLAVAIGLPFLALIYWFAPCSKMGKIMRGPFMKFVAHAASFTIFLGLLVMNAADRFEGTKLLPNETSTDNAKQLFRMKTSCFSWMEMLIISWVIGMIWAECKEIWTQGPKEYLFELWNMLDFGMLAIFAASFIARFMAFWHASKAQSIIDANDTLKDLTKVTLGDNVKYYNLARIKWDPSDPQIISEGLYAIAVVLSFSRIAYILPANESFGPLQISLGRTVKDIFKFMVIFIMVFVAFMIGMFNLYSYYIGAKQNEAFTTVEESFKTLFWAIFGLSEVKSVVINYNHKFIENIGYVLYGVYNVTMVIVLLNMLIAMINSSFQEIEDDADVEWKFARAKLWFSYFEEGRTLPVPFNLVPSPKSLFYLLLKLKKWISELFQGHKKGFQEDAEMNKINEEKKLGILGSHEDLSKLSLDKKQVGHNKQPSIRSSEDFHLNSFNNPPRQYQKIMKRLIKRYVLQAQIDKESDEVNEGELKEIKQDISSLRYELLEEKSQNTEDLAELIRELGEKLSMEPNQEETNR
Nature of the test: TRPC6 calcium flux assay (FLIPR, OAG-stimulated calcium influx). The following applies: HEK293 cells stably transfected with human TRPC6, read-out: hTRPC6 Potency. The format is cell-based. The essentials: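 HEK293 cells stably expressing human TRPC6, loaded with calcium dye 90–120 min at RT, then given compound for 25 min before OAG (50 uM final, 0.5% DMSO) in HEPES buffer pH 7.2 with 2 mM CaCl2. Background-subtracted FLIPR peak over 180 s normalized to OAG vs buffer; IC50 from dose plot.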

pIC50: −log10 of the molar value. Bounds are passed on as bounds.

As for `NC(=O)C1CCN(C(=O)Cn2c(N3CC[C@@H](F)[C@H](N)C3)nc3cc(F)c(F)cc32)CC1` [Example 532, 1-(2-(2-((3R,4R)-3-amino-4-fluoropiperidin-1-yl)-5,6-difluoro-1H-benzo[d]imidazol-1-yl)acetyl)piperidine-4-carbaxamide], the pIC50 is < 5.43.
On to `CN(C(=O)Cn1c(N2CC[C@@H](F)[C@H](N)C2)nc2cc(F)c(F)cc21)C(C)(C)C#N` [Example 533, 2-(2-((3R,4R)-3-amino-4-fluoropiperidin-1-yl)-5,6-difluoro-1H-benzo[d]imidazol-1-yl)-N-(2-cyanopropan-2-yl)-N-methylacetamide], for which the pIC50 is < 5.43.
`CNC(=O)C1CCN(C(=O)Cn2c(N3CC[C@@H](F)[C@H](N)C3)nc3cc(F)c(F)cc32)CC1` [Example 534, 1-(2-(2-((3R,4R)-3-amino-4-fluoropiperidin-1-yl)-5,6-difluoro-1H-benzo[d]imidazol-1-yl)acetyl)-N-methylpiperidine-4-carboxamide]: the pIC50 is < 5.43.
The same measure for `CC(=O)NC1CCCN(C(=O)Cn2c(N3CC[C@@H](F)[C@H](N)C3)nc3cc(F)c(F)cc32)C1` (stereo partly drawn) [Example 535, N-(1-(2-(2-((3R,4R)-3-amino-4-fluoropiperidin-1-yl)-5,6-difluoro-1H-benzo[d]imidazol-1-yl)acetyl)piperidin-3-yl)acetamide]: < 5.43; for `N[C@@H]1CN(c2nc3cc(F)c(F)cc3n2CC(=O)N2CCC(C(=O)N3CCCCC3)CC2)CC[C@H]1F` [Example 536, 2-(2-((3R,4R)-3-amino-4-fluoropiperidin-1-yl)-5,6-difluoro-1H-benzo[d]imidazol-1-yl)-1-(4-(piperidine-1-carbonyl)piperidin-1-yl)ethan-1-one]: < 5.43; for `N[C@@H]1CN(c2nc3cc(F)c(F)cc3n2CC(=O)N2CCC(C(=O)N3CCCCCC3)CC2)CC[C@H]1F` [Example 537, 2-(2-((3R,4R)-3-amino-4-fluoropiperidin-1-yl)-5,6-difluoro-1H-benzo[d]imidazol-1-yl)-1-(4-(azepane-1-carbonyl)piperidin-1-yl)ethan-1-one]: < 5.76.
The same measure for `COCCN(C(=O)Cn1c(N2CC[C@@H](F)[C@H](N)C2)nc2cc(F)c(F)cc21)C1CCS(=O)(=O)C1` (stereo partly drawn) [Example 538, 2-(2-((3R,4R)-3-amino-4-fluoropiperidin-1-yl)-5,6-difluoro-1H-benzo[d]imidazol-1-yl)-N-(1,1-dioxidotetrahydrothiophen-3-yl)-N-(2-methoxyethyl)acetamide]: < 5.43; for `CC1CCCN(C(=O)C2CCN(C(=O)Cn3c(N4CC[C@@H](F)[C@H](N)C4)nc4cc(F)c(F)cc43)CC2)C1` (stereo partly drawn) [Example 539, 2-(2-((3R,4R)-3-amino-4-fluoropiperidin-1-yl)-5,6-difluoro-1H-benzo[d]imidazol-1-yl)-1-(4-(3-methylpiperidine-1-carbonyl)piperidin-1-yl)ethan-1-one]: < 5.43; for `CC(=O)N1CCN(C(=O)Cn2c(N3CC[C@@H](F)[C@H](N)C3)nc3cc(F)c(F)cc32)CC1` [Example 540, 1-(4-acetylpiperazin-1-yl)-2-(2-((3R,4R)-3-amino-4-fluoropiperidin-1-yl)-5,6-difluoro-1H-benzo[d]imidazol-1-yl)ethan-1-one]: < 5.43.
The same measure for `N[C@@H]1CN(c2nc3cc(F)c(F)cc3n2CC(=O)N(CC2CCCO2)C2CCS(=O)(=O)C2)CC[C@H]1F` (stereo partly drawn) [Example 541, 2-(2-((3R,4R)-3-amino-4-fluoropiperidin-1-yl)-5,6-difluoro-1H-benzo[d]imidazol-1-yl)-N-(1,1-dioxidotetrahydrothiophen-3-yl)-N-((tetrahydrofuran-2-yl)methyl)acetamide]: < 5.43; for `CC(C)N(C)C(=O)C1CCN(C(=O)Cn2c(N3CC[C@@H](F)[C@H](N)C3)nc3cc(F)c(F)cc32)CC1` [Example 542, 1-(2-(2-((3R,4R)-3-amino-4-fluoropiperidin-1-yl)-5,6-difluoro-1H-benzo[d]imidazol-1-yl)acetyl)-N-isopropyl-N-methylpiperidine-4-carboxamide]: < 5.43.
Turning to `COc1cc(F)cc2nc(N3CC[C@@H](F)[C@H](N)C3)n(CC(=O)N(C)CC(F)(F)F)c12` [Example 544, 2-(2-((3R,4R)-3-amino-4-fluoropiperidin-1-yl)-5-fluoro-7-methoxy-1H-benzo[d]imidazol-1-yl)-N-methyl-N-(2,2,2-trifluoroethyl)acetamide], the pIC50 is < 5.43.
With `COc1cc(F)cc2c1nc(N1CC[C@@H](F)[C@H](N)C1)n2CC(=O)N1CCOCC1` [Example 545, 2-(2-((3R,4R)-3-amino-4-fluoropiperidin-1-yl)-6-fluoro-4-methoxy-1H-benzo[d]imidazol-1-yl)-1-morpholinoethan-1-one], the pIC50 was < 5.43.
The same measure for `COc1cc(F)cc2nc(N3CC[C@@H](F)[C@H](N)C3)n(CC(=O)N3CCOCC3)c12` [Example 546, 2-(2-((3R,4R)-3-amino-4-fluoropiperidin-1-yl)-5-fluoro-7-methoxy-1H-benzo[d]imidazol-1-yl)-1-morpholinoethan-1-one]: < 5.43; for `N[C@@H]1CN(c2nc3cc(F)c(F)cc3n2[C@@H]2CCN(C3CC3)C2=O)CC[C@H]1F` [Example 547, (R)-3-(2-((3R,4R)-3-amino-4-fluoropiperidin-1-yl)-5,6-difluoro-1H-benzo[d]imidazol-1-yl)-1-cyclopropylpyrrolidin-2-one]: 7.36; for `N[C@@H]1CN(c2nc3cc(F)c(F)cc3n2[C@H]2CCN(C3CCOCC3)C2=O)CC[C@H]1F` [Example 548, (S)-3-(2-((3R,4R)-3-amino-4-fluoropiperidin-1-yl)-5,6-difluoro-1H-benzo[d]imidazol-1-yl)-1-(tetrahydro-2H-pyran-4-yl)pyrrolidin-2-one]: 6.42.
The same measure for `N[C@@H]1CN(c2nc3cc(F)c(F)cc3n2[C@H]2CCN(C3CC3)C2=O)CC[C@H]1F` [Example 549, (S)-3-(2-((3R,4R)-3-amino-4-fluoropiperidin-1-yl)-5,6-difluoro-1H-benzo[d]imidazol-1-yl)-1-cyclopropylpyrrolidin-2-one]: 6.39; for `N[C@@H]1CN(c2nc3cc(F)c(F)cc3n2[C@@H]2CCN(C3CCOCC3)C2=O)CC[C@H]1F` [Example 550, (R)-3-(2-((3R,4R)-3-amino-4-fluoropiperidin-1-yl)-5,6-difluoro-1H-benzo[d]imidazol-1-yl)-1-(tetrahydro-2H-pyran-4-yl)pyrrolidin-2-one]: < 5.43.
The same measure for `Cc1cnc(Cn2c(N3CC[C@@H](F)[C@H](N)C3)nc3cc(F)c(F)cc32)s1` [Example 551, (3R,4R)-1-(5,6-difluoro-1-((5-methylthiazol-2-yl)methyl)-1H-benzo[d]imidazol-2-yl)-4-fluoropiperidin-3-amine]: 8.21; for `Cc1nnc(Cn2c(N3CC[C@@H](F)[C@H](N)C3)nc3c(F)cc(F)cc32)s1` [Example 552, (3R,4R)-1-(4,6-difluoro-1-((5-methyl-1,3,4-thiadiazol-2-yl)methyl)-1H-benzo[d]imidazol-2-yl)-4-fluoropiperidin-3-amine]: 8.19.
`Cc1nnc(Cn2c(N3CC[C@@H](F)[C@H](N)C3)nc3cc(F)c(F)cc32)s1` [Example 553, (3R,4R)-1-(5,6-difluoro-1-((5-methyl-1,3,4-thiadiazol-2-yl)methyl)-1H-benzo[d]imidazol-2-yl)-4-fluoropiperidin-3-amine]: the pIC50 was 8.17.
On to `CN(CC(F)(F)F)C(=O)Cn1c(N2CC[C@@H](F)[C@H](N)C2)nc2ccc(C(F)(F)F)cc21` [Example 554, 2-(2-((3R,4R)-3-amino-4-fluoropiperidin-1-yl)-6-(trifluoromethyl)-1H-benzo[d]imidazol-1-yl)-N-methyl-N-(2,2,2-trifluoroethyl)acetamide], for which the pIC50 is 7.96.
Turning to `N[C@@H]1CN(c2nc3ncc(F)cc3n2Cc2ncc(Cl)cn2)CC[C@H]1F` [Example 555, (3R,4R)-1-(1-((5-chloropyrimidin-2-yl)methyl)-6-fluoro-1H-imidazo[4,5-b]pyridin-2-yl)-4-fluoropiperidin-3-amine], the pIC50 is 7.94.
On to `CS(=O)(=O)c1ccc(Cn2c(N3CC[C@@H](F)[C@H](N)C3)nc3c(F)cc(F)cc32)nc1` [Example 556, (3R,4R)-1-(4,6-difluoro-1-((5-(methylsulfonyl)pyridin-2-yl)methyl)-1H-benzo[d]imidazol-2-yl)-4-fluoropiperidin-3-amine], for which the pIC50 is 7.92.
